In patent publication US7135615B2, “Chromosome doubling method” (The Curators of the University of Missouri, priority 2001, dated 2006):
Several values for one entry are separate records, joined by “and”; a condition that tells them apart may be missing. Identical values can stand only once. Marks after values point to notes of the source that are not given here.

Assays:
[1] = system: maize B55 haploid seedlings; experiment: nitrous oxide gas treatment at 3–8 leaf stages, B55 haploids (Example 3); details: for Ear (open pollinated): No. of fertile sectors /ear / Ear (open pollinated): No. of kernels produced /ear / Ear (open pollinated): Plants with fertile sectors % / No. of tassel branch Average / Plant height (cm) Average / Tassel: No. of fertile anthers extruded/tassel / Tassel: No. of fertile sectors/tassel / Tassel: Plants with fertile sectors % / Ear (open pollinated): Plants with fertile sectors No. / Tassel: Plants with fertile sectors No. / No. of plants Survived: 600 kPa, 2 days
From the text: Leaf stages were defined as follows, At the 3 leaf stage, there are three elongated leaves and the tip of the fourth leaf appears at the center of the leaf whorl. This stage is defined as V2 according to Ritchie et al. (1997). At the 8 leaf stage, there are 8 elongated leaves and the tip of the 9th and 10th leaves appear at the center of the leaf whorl (late V5 stage). At the 6 leaf stage, six elongated leaves are observable, and the tip of seventh leaf appears at the leaf whorl (late V4 or early V5 stage). Nine to sixteen haploid plants were treated at each stage using a large air tight iron chamber (FIG. 3). […] Moistened calcium hydroxide (50 g) wrapped in a paper towel was included to absorb carbon dioxide that is produced by the seedlings, as carbon dioxide at high concentration will injure the seedlings during the treatment. The soil of the pots was dried prior to treatment to prevent root injuries. […] The gas was introduced slowly into the chamber over a 10 minutes time frame.
After the treatment, seedlings were transplanted into larger pots, and grown in a greenhouse. A relatively cool temperature (below 25° C.) was maintained to permit the appropriate development of doubled sectors. At flowering, the ears were cross pollinated by an appropriate pollen source to reveal all the fertile sectors on the ears. On the treated plants, plant height (cm), tassel size (cm), number of tassel branches, ear length (cm), the number of fertile sectors on a tassel and an ear, the number of anthers on a tassel, and the number of kernels on an ear were recorded.
Analyses of variance and Duncan's Multiple Range Tests were performed to determine the effects of treatments on the plant height (cm), tassel size (cm), and ear length (cm). Chi square tests were used to determine the effects of treatments upon the proportion of plants that developed fertile tassel and ear sectors. The ratios of untreated plants with fertile sectors were used to estimate the significance of the ratio of treated plants with fertile sectors.
Nonparametric tests were performed to compare the distributions. The primary test was the Kruskal-Wallis test. In the initial tests, the null hypothesis considered was that the distributions would be the same for each treatment and control. If the null hypothesis was rejected (P<0.05), then pair wise comparisons of each treatment to the control using Dunn's method were conducted. The tassel branch number was low incidence count data and was analyzed using the same nonparametric tests mentioned above.

[2] = system: maize haploid seedlings of origin A619; experiment: doubled haploid production trial, A619 haploids (Example 4); details: 600 kPa, 2 days; for Ear: No. of kernels produced/ear: selfed
Protocol: (§1) Ten to nineteen plants were treated for each plot. Self pollinations were conducted on these treated haploids if there were fertile sectors on the tassel. Pollen grains were collected carefully on a sheet of paper and transferred to the silks repeatedly. Silks and husks were cut back prior to pollination in order to permit maximum seed set. The numbers of fertile tassel and ear sectors, as well as the numbers of anthers and selfed kernels were recorded. Statistical analyses were as described above.

[3] = system: maize haploid seedlings of origin A619 × B73; experiment: doubled haploid production trial, A619 × B73 haploids (Example 4); details: 600 kPa, 2 days; for Ear: No. of kernels produced/ear: selfed
Protocol: as §1

[N-]=[N+]=O [nitrous oxide gas, nitrous oxide]
Ear (open pollinated): No. of fertile sectors /ear ([1]; 3 leaf stage): 1.1 /ear | Ear (open pollinated): No. of kernels produced /ear ([1]; 3 leaf stage): 49.0* /ear | Ear (open pollinated): Plants with fertile sectors % ([1]; 3 leaf stage): 67% | No. of tassel branch Average ([1]; 3 leaf stage): 18.8* | Plant height (cm) Average ([1]; 3 leaf stage): 183 cm·days | Tassel: No. of fertile anthers extruded/tassel ([1]; 3 leaf stage): 35.6 /tassel | Tassel: No. of fertile sectors/tassel ([1]; 3 leaf stage): 1.1 /tassel | Tassel: Plants with fertile sectors % ([1]; 3 leaf stage): 67% | Ear (open pollinated): Plants with fertile sectors No. ([1]; 3 leaf stage, 9 examined): 6 | Tassel: Plants with fertile sectors No. ([1]; 3 leaf stage, 9 examined): 6 | No. of plants Survived ([1]; 3 leaf stage, 10 treated): 9 | number of anthers /tassel, span over treatments ([1]; 3–8 leaf stage treatments): 35.6–521 /tassel | number of kernels on the ears, span over treatments ([1]; 3–8 leaf stage treatments): 10.9–49.0 | Ear (open pollinated): No. of fertile sectors /ear ([1]; 4 leaf stage): 2.8** /ear | Ear (open pollinated): No. of kernels produced /ear ([1]; 4 leaf stage): 21.5** /ear | Ear (open pollinated): Plants with fertile sectors % ([1]; 4 leaf stage): 100** % | No. of tassel branch Average ([1]; 4 leaf stage): 20.1 | Plant height (cm) Average ([1]; 4 leaf stage): 168 bc cm | Tassel: No. of fertile anthers extruded/tassel ([1]; 4 leaf stage): 111.5* /tassel | Tassel: No. of fertile sectors/tassel ([1]; 4 leaf stage): 1.5 /tassel | Tassel: Plants with fertile sectors % ([1]; 4 leaf stage): 64% | Ear (open pollinated): Plants with fertile sectors No. ([1]; 4 leaf stage, 11 examined): 11 | Tassel: Plants with fertile sectors No. ([1]; 4 leaf stage, 11 examined): 7 | No. of plants Survived ([1]; 4 leaf stage, 11 treated): 11 | Ear (open pollinated): No. of fertile sectors /ear ([1]; 5 leaf stage): 1.6 /ear | Ear (open pollinated): No. of kernels produced /ear ([1]; 5 leaf stage): 40.4** /ear | Ear (open pollinated): Plants with fertile sectors % ([1]; 5 leaf stage): 89* % | No. of tassel branch Average ([1]; 5 leaf stage): 13.9** | Plant height (cm) Average ([1]; 5 leaf stage): 170 c cm | Tassel: No. of fertile anthers extruded/tassel ([1]; 5 leaf stage): 139.6** /tassel | Tassel: No. of fertile sectors/tassel ([1]; 5 leaf stage): 3.0* /tassel | Tassel: Plants with fertile sectors % ([1]; 5 leaf stage): 100** % | Ear (open pollinated): Plants with fertile sectors No. ([1]; 5 leaf stage, 9 examined): 8 | Tassel: Plants with fertile sectors No. ([1]; 5 leaf stage, 9 examined): 9 | No. of plants Survived ([1]; 5 leaf stage, 9 treated): 9 | frequency of fertile sectors on the tassels ([1]; 5–7 leaf stages): 100% | number of anthers on the tassels ([1]; 5–7 leaf stages): 140–521 /tassel | number of kernels on the ears ([1]; 5–7 leaf stages): 40.4–47.5 /ear | Ear (open pollinated): No. of fertile sectors /ear ([1]; 6 leaf stage): 1.7 /ear | Ear (open pollinated): No. of kernels produced /ear ([1]; 6 leaf stage): 45.5** /ear | Ear (open pollinated): Plants with fertile sectors % ([1]; 6 leaf stage): 90* % | No. of tassel branch Average ([1]; 6 leaf stage): 14.5** | Plant height (cm) Average ([1]; 6 leaf stage): 165 bc cm | Tassel: No. of fertile anthers extruded/tassel ([1]; 6 leaf stage): 521 /tassel and 521.1** /tassel | Tassel: No. of fertile sectors/tassel ([1]; 6 leaf stage): 5.7** /tassel | Tassel: Plants with fertile sectors % ([1]; 6 leaf stage): 100** % | Ear (open pollinated): Plants with fertile sectors No. ([1]; 6 leaf stage, 10 examined): 9 | Tassel: Plants with fertile sectors No. ([1]; 6 leaf stage, 10 examined): 10 | No. of plants Survived ([1]; 6 leaf stage, 10 treated): 10 | Ear (open pollinated): No. of fertile sectors /ear ([1]; 7 leaf stage): 1.8 /ear | Ear (open pollinated): No. of kernels produced /ear ([1]; 7 leaf stage): 47.5** /ear | Ear (open pollinated): Plants with fertile sectors % ([1]; 7 leaf stage): 82% | No. of tassel branch Average ([1]; 7 leaf stage): 14.3** | Plant height (cm) Average ([1]; 7 leaf stage): 168 bc cm | Tassel: No. of fertile anthers extruded/tassel ([1]; 7 leaf stage): 267.3** /tassel | Tassel: No. of fertile sectors/tassel ([1]; 7 leaf stage): 9.6** /tassel | Tassel: Plants with fertile sectors % ([1]; 7 leaf stage): 100** % | Ear (open pollinated): Plants with fertile sectors No. ([1]; 7 leaf stage, 11 examined): 9 | Tassel: Plants with fertile sectors No. ([1]; 7 leaf stage, 11 examined): 11 | No. of plants Survived ([1]; 7 leaf stage, 11 treated): 11 | Ear (open pollinated): No. of fertile sectors /ear ([1]; 8 leaf stage): 2.3** /ear | Ear (open pollinated): No. of kernels produced /ear ([1]; 8 leaf stage): 10.9* /ear | Ear (open pollinated): Plants with fertile sectors % ([1]; 8 leaf stage): 92** % | No. of tassel branch Average ([1]; 8 leaf stage): 20.4* | Plant height (cm) Average ([1]; 8 leaf stage): 137 a cm | Tassel: No. of fertile anthers extruded/tassel ([1]; 8 leaf stage): 283.2** /tassel | Tassel: No. of fertile sectors/tassel ([1]; 8 leaf stage): >18.6** /tassel | Tassel: Plants with fertile sectors % ([1]; 8 leaf stage): 100** % | Ear (open pollinated): Plants with fertile sectors No. ([1]; 8 leaf stage, 12 examined): 11 | Tassel: Plants with fertile sectors No. ([1]; 8 leaf stage, 12 examined): 12 | No. of plants Survived ([1]; 8 leaf stage, 12 treated): 12 | Ear: Plants with kernels after selfing % ([2]; 5 leaf stage): 17 n.s. % | Tassel: No. of fertile anthers extruded/tassel ([2]; 5 leaf stage): 4.5 n.s /tassel | Tassel: No. of fertile sectors/tassel ([2]; 5 leaf stage): 0.3 n.s. /tassel | Tassel: Plants with fertile sectors % ([2]; 5 leaf stage): 25 n.s. % | Ear: Plants with kernels after selfing No. ([2]; 5 leaf stage, 12 survived): 2 | Tassel: Plants with fertile sectors No. ([2]; 5 leaf stage, 12 survived): 3 | No. of plants Survived ([2]; 5 leaf stage, 12 treated): 12 | Ear: No. of kernels produced/ear ([2]; 5 leaf stage): 0.3 n.s. /ear | Ear: Plants with kernels after selfing % ([2]; 6 leaf stage): 33% | Tassel: No. of fertile anthers extruded/tassel ([2]; 6 leaf stage): 3.2 /tassel | Tassel: No. of fertile sectors/tassel ([2]; 6 leaf stage): 0.6 /tassel | Tassel: Plants with fertile sectors % ([2]; 6 leaf stage): 56% | Ear: Plants with kernels after selfing No. ([2]; 6 leaf stage, 9 survived): 3 | Tassel: Plants with fertile sectors No. ([2]; 6 leaf stage, 9 survived): 5 | No. of plants Survived ([2]; 6 leaf stage, 9 treated): 9 | Ear: No. of kernels produced/ear ([2]; 6 leaf stage): 2.0 /ear | Ear: Plants with kernels after selfing % ([2]; 7 leaf stage): 31% | Tassel: No. of fertile anthers extruded/tassel ([2]; 7 leaf stage): 8.2 /tassel | Tassel: No. of fertile sectors/tassel ([2]; 7 leaf stage): 1.6 /tassel | Tassel: Plants with fertile sectors % ([2]; 7 leaf stage): 54% | Ear: Plants with kernels after selfing No. ([2]; 7 leaf stage, 13 survived): 4 | Tassel: Plants with fertile sectors No. ([2]; 7 leaf stage, 13 survived): 7 | No. of plants Survived ([2]; 7 leaf stage, 14 treated): 13 | Ear: No. of kernels produced/ear ([2]; 7 leaf stage): 1.6 /ear | Ear: Plants with kernels after selfing % ([3]; 5 leaf stage): 36 n.s. % | Tassel: No. of fertile anthers extruded/tassel ([3]; 5 leaf stage): 20.8** /tassel | Tassel: Plants with fertile sectors % ([3]; 5 leaf stage): 73** % | Ear: Plants with kernels after selfing No. ([3]; 5 leaf stage, 11 survived): 4 | Tassel: Plants with fertile sectors No. ([3]; 5 leaf stage, 11 survived): 8 | No. of plants Survived ([3]; 5 leaf stage, 12 treated): 11 | Ear: No. of kernels produced/ear ([3]; 5 leaf stage): 4.2 n.s. /ear | Ear: Plants with kernels after selfing % ([3]; 6 leaf stage): 36% | Tassel: No. of fertile anthers extruded/tassel ([3]; 6 leaf stage): 34.5** /tassel | Tassel: No. of fertile sectors/tassel ([3]; 6 leaf stage): 1.7** /tassel | Tassel: Plants with fertile sectors % ([3]; 6 leaf stage): 73** % | Ear: Plants with kernels after selfing No. ([3]; 6 leaf stage, 11 survived): 4 | Tassel: Plants with fertile sectors No. ([3]; 6 leaf stage, 11 survived): 8 | No. of plants Survived ([3]; 6 leaf stage, 11 treated): 11 | Ear: No. of kernels produced/ear ([3]; 6 leaf stage): 6.2 /ear | Ear: Plants with kernels after selfing % ([3]; 7 leaf stage): 17% | Tassel: No. of fertile anthers extruded/tassel ([3]; 7 leaf stage): 4.8* /tassel | Tassel: Plants with fertile sectors % ([3]; 7 leaf stage): 75** % | Ear: Plants with kernels after selfing No. ([3]; 7 leaf stage, 12 survived): 2 | Tassel: Plants with fertile sectors No. ([3]; 7 leaf stage, 12 survived): 9 | No. of plants Survived ([3]; 7 leaf stage, 12 treated): 12 | Ear: No. of kernels produced/ear ([3]; 7 leaf stage): 3.5 /ear
